Test results from PubChem BioAssay (NCI).
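A five-concentration, 48-hour dose response in 96-well plates underlies each endpoint, interpolated linearly between surrounding concentrations. GI50 = concentration required for 50% inhibition of growth. TGI: concentration producing complete growth inhibition.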

Assays:
Assay in all cases: NCI-60 cell line screen, 48 h
[1] = system: 786-0 renal
[2] = system: A498 renal
[3] = system: A549 NSCLC
[4] = system: ACHN renal
[5] = system: BT-549 breast
[6] = system: CAKI-1 renal
[7] = system: CCRF-CEM leukemia
[8] = system: COLO 205 colon
[9] = system: DU-145 prostate
[10] = system: EKVX NSCLC
[11] = system: HCC-2998 colon
[12] = system: HCT-116 colon
[13] = system: HCT-15 colon
[14] = system: HL-60(TB) leukemia
[15] = system: HOP-62 NSCLC
[16] = system: HS 578T breast
[17] = system: HT29 colon
[18] = system: IGROV1 ovarian
[19] = system: K-562 leukemia
[20] = system: KM12 colon
[21] = system: M14 melanoma
[22] = system: MALME-3M melanoma
[23] = system: MDA-MB-435
[24] = system: MOLT-4 leukemia
[25] = system: NCI-H226 lung
[26] = system: NCI-H23 lung
[27] = system: NCI-H460 lung
[28] = system: NCI-H522 lung
[29] = system: NCI/ADR-RES ovarian
[30] = system: OVCAR-3 ovarian
[31] = system: OVCAR-4 ovarian
[32] = system: OVCAR-5 ovarian
[33] = system: OVCAR-8 ovarian
[34] = system: PC-3 prostate
[35] = system: RPMI-8226 leukemia
[36] = system: RXF 393 renal
[37] = system: SF-268 CNS
[38] = system: SF-295 CNS
[39] = system: SF-539 CNS
[40] = system: SK-MEL-2 melanoma
[41] = system: SK-MEL-28 melanoma
[42] = system: SK-MEL-5 melanoma
[43] = system: SK-OV-3 ovarian
[44] = system: SN12C renal
[45] = system: SNB-19 CNS
[46] = system: SNB-75 CNS
[47] = system: SR leukemia
[48] = system: T-47D breast
[49] = system: TK-10 renal
[50] = system: U251 CNS
[51] = system: UACC-257 melanoma
[52] = system: UACC-62 melanoma
[53] = system: UO-31 renal
[54] = system: HOP-92 NSCLC
[55] = system: LOX IMVI melanoma
[56] = system: MDA-MB-231 breast
[57] = system: SW-620 colon

SMILES: Cc1ccc2c(n1)C(=O)C(Cl)=C(Nc1ccc(C(C)C)cc1)C2=O
- GI50 [1]: 2.08 µM
- TGI [1]: 4.5 µM
- GI50 [2]: 12.5 µM
- TGI [2]: 25.2 µM
- GI50 [3]: 3.26 µM
- TGI [3]: 12.4 µM
- GI50 [4]: 1.66 µM
- TGI [4]: 3.09 µM
- GI50 [5]: 1.51 µM
- TGI [5]: 2.9 µM
- GI50 [6]: 1.53 µM
- TGI [6]: 3.15 µM
- GI50 [7]: 1.9 µM
- TGI [7]: 5.78 µM
- GI50 [8]: 1.89 µM
- TGI [8]: 3.97 µM
- GI50 [9]: 1.73 µM
- TGI [9]: 3.24 µM
- GI50 [10]: 1.5 µM
- TGI [10]: 4.18 µM
- GI50 [11]: 1.99 µM
- TGI [11]: 3.65 µM
- GI50 [12]: 1.52 µM
- TGI [12]: 3.41 µM
- GI50 [13]: 1.39 µM
- TGI [13]: 3.14 µM
- GI50 [14]: 1.44 µM
- TGI [14]: 3.5 µM
- GI50 [15]: 5.34 µM
- TGI [15]: 20.1 µM
- GI50 [16]: 2.07 µM
- TGI [16]: 5.96 µM
- GI50 [17]: 2.57 µM
- TGI [17]: 6.44 µM
- GI50 [18]: 1.29 µM
- TGI [18]: 2.96 µM
- GI50 [19]: 0.351 µM
- TGI [19]: 1.68 µM
- GI50 [20]: 3.25 µM
- TGI [20]: 14 µM
- GI50 [21]: 1.7 µM
- TGI [21]: 3.25 µM
- GI50 [22]: 1.65 µM
- TGI [22]: 3.38 µM
- GI50 [23]: 1.93 µM
- TGI [23]: 3.7 µM
- GI50 [24]: 2.16 µM
- TGI [24]: 6.36 µM
- GI50 [25]: 1.68 µM
- TGI [25]: 4.35 µM
- GI50 [26]: 1.82 µM
- TGI [26]: 5.05 µM
- GI50 [27]: 3.03 µM
- TGI [27]: 13.9 µM
- GI50 [28]: 2.02 µM
- TGI [28]: 4.58 µM
- GI50 [29]: 2.53 µM
- TGI [29]: 9.2 µM
- GI50 [30]: 1.4 µM
- TGI [30]: 2.77 µM
- GI50 [31]: 1.57 µM
- TGI [31]: 3.15 µM
- GI50 [32]: 1.74 µM
- TGI [32]: 3.53 µM
- GI50 [33]: 2.59 µM
- TGI [33]: 9.48 µM
- GI50 [34]: 1.28 µM
- TGI [34]: 3.16 µM
- GI50 [35]: 1.52 µM
- TGI [35]: 4.53 µM
- GI50 [36]: 1.49 µM
- TGI [36]: 2.85 µM
- GI50 [37]: 1.76 µM
- TGI [37]: 3.86 µM
- GI50 [38]: 3.63 µM
- TGI [38]: 13 µM
- GI50 [39]: 1.62 µM
- TGI [39]: 3.07 µM
- GI50 [40]: 1.81 µM
- TGI [40]: 3.54 µM
- GI50 [41]: 1.83 µM
- TGI [41]: 3.33 µM
- GI50 [42]: 1.59 µM
- TGI [42]: 3 µM
- GI50 [43]: 10.4 µM
- TGI [43]: 22.3 µM
- GI50 [44]: 2.03 µM
- TGI [44]: 5.38 µM
- GI50 [45]: 1.9 µM
- TGI [45]: 4.57 µM
- GI50 [46]: 1.67 µM
- TGI [46]: 5.17 µM
- GI50 [47]: 0.643 µM
- TGI [47]: 3.48 µM
- GI50 [48]: 1.18 µM
- TGI [48]: 3.46 µM
- GI50 [49]: 2.57 µM
- TGI [49]: 4.13 µM
- GI50 [50]: 1.76 µM
- TGI [50]: 3.51 µM
- GI50 [51]: 1.69 µM
- TGI [51]: 3.18 µM
- GI50 [52]: 1.83 µM
- TGI [52]: 3.77 µM
- GI50 [53]: 1.23 µM
- TGI [53]: 2.6 µM

SMILES: COc1ccc(/C=N/NC2=NC3C(S2)N(C)C(=O)N3C)cc1 (stereo not drawn)
- GI50 [1]: 4.89 µM
- TGI [1]: > 100 µM
- GI50 [2]: 5.73 µM
- TGI [2]: 87 µM
- GI50 [3]: 5.83 µM
- TGI [3]: > 100 µM
- GI50 [4]: 5.27 µM
- TGI [4]: > 100 µM
- GI50 [5]: 2.71 µM
- TGI [5]: 14.2 µM
- GI50 [6]: 3.76 µM
- TGI [6]: > 100 µM
- GI50 [7]: 3.61 µM
- TGI [7]: > 100 µM
- GI50 [8]: 4.25 µM
- TGI [8]: 25 µM
- GI50 [9]: 9.89 µM
- TGI [9]: > 100 µM
- GI50 [10]: 8.03 µM
- TGI [10]: > 100 µM
- GI50 [11]: 6.91 µM
- TGI [11]: 36 µM
- GI50 [12]: 4.67 µM
- TGI [12]: > 100 µM
- GI50 [13]: 3.48 µM
- TGI [13]: > 100 µM
- GI50 [14]: 2.51 µM
- TGI [14]: 5.55 µM
- GI50 [15]: 4.12 µM
- TGI [15]: > 100 µM
- GI50 [54]: 9.44 µM
- TGI [54]: > 100 µM
- GI50 [16]: 2.51 µM
- TGI [16]: 7.53 µM
- GI50 [17]: 2.15 µM
- TGI [17]: 5.1 µM
- GI50 [18]: 4.72 µM
- TGI [18]: > 100 µM
- GI50 [19]: 3.12 µM
- TGI [19]: > 100 µM
- GI50 [20]: 4.73 µM
- TGI [20]: > 100 µM
- GI50 [55]: 3.79 µM
- TGI [55]: > 100 µM
- GI50 [21]: 4 µM
- TGI [21]: 64.1 µM
- GI50 [22]: 3.7 µM
- TGI [22]: > 100 µM
- GI50 [56]: 6.09 µM
- TGI [56]: 45.2 µM
- GI50 [23]: 1.6 µM
- TGI [23]: 3.92 µM
- GI50 [24]: 3.58 µM
- TGI [24]: > 100 µM
- GI50 [25]: 4.58 µM
- TGI [25]: > 100 µM
- GI50 [26]: 5.05 µM
- TGI [26]: > 100 µM
- GI50 [29]: 3.8 µM
- TGI [29]: 27.4 µM
- GI50 [30]: 2.82 µM
- TGI [30]: 7.95 µM
- GI50 [31]: 7.95 µM
- TGI [31]: > 100 µM
- GI50 [32]: 7.96 µM
- TGI [32]: > 100 µM
- GI50 [33]: 7.65 µM
- TGI [33]: > 100 µM
- GI50 [34]: 4.76 µM
- TGI [34]: > 100 µM
- GI50 [35]: 5 µM
- TGI [35]: > 100 µM
- GI50 [36]: 1.99 µM
- TGI [36]: 5.05 µM
- GI50 [37]: 5.37 µM
- TGI [37]: > 100 µM
- GI50 [38]: 2.97 µM
- TGI [38]: 12.7 µM
- GI50 [39]: 3.03 µM
- TGI [39]: 12.3 µM
- GI50 [40]: 1.04 µM
- TGI [40]: 3.52 µM
- GI50 [41]: 7.7 µM
- TGI [41]: > 100 µM
- GI50 [42]: 2.95 µM
- TGI [42]: 10.6 µM
- GI50 [43]: 4.27 µM
- TGI [43]: > 100 µM
- GI50 [44]: 4.17 µM
- TGI [44]: > 100 µM
- GI50 [45]: 4.12 µM
- TGI [45]: > 100 µM
- GI50 [46]: 1.75 µM
- TGI [46]: 6.26 µM
- GI50 [57]: 3.32 µM
- TGI [57]: > 100 µM
- GI50 [48]: 4.5 µM
- TGI [48]: > 100 µM
- TGI [49]: 40.9 µM
- GI50 [50]: 3.78 µM
- TGI [50]: > 100 µM
- GI50 [51]: 5.01 µM
- TGI [51]: > 100 µM
- GI50 [52]: 2.97 µM
- TGI [52]: 37.1 µM
- GI50 [53]: 3.16 µM
- TGI [53]: > 100 µM
